The supplement of paper PMC8617591

Experiments:
[1] = tested on: Mycobacterium tuberculosis Erdman (autoluminescent); experiment: AUC25, normalised area under dose response up to IC25 (three-drug combination) (fraction (0-1)); higher = more potent at low dose
Procedure: (§1)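 DiaMOND equipotent three-drug combination dose responses (10 doses, 1.5- or 2-fold spacing, centred on IC90) against autoluminescent M. tuberculosis Erdman in 8 in vitro models. Read-out is OD600, or luminescence for the intracellular and dormancy models, normalised to untreated wells. Hill-fit Einf, AUC25 and GRinf are potency metrics; FIC50 and FIC90 are total Loewe fractional inhibitory concentrations as log2 (negative = synergy).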

[2] = tested on: Mycobacterium tuberculosis Erdman (autoluminescent); experiment: GRinf, maximum normalised growth rate inhibition (three-drug combination) (unitless (-1 to 1)); higher = less effect (negative = killing)
Procedure: as §1

[3] = tested on: Mycobacterium tuberculosis Erdman (autoluminescent); experiment: total FIC90 (Loewe) at 90% inhibition, three-drug combination (log2); higher = more antagonistic
Procedure: as §1

[4] = tested on: Mycobacterium tuberculosis Erdman (autoluminescent); experiment: total FIC50 (Loewe) at 50% inhibition, three-drug combination (log2); higher = more antagonistic
Procedure: as §1

[5] = tested on: Mycobacterium tuberculosis Erdman (autoluminescent); experiment: Einf, fitted maximum growth inhibition of three-drug combination (fraction); higher = stronger maximal inhibition
Procedure: as §1

CC[C@@H](CO)NCCN[C@@H](CC)CO [ethambutol] + CC(=O)NC[C@H]1CN(c2ccc(N3CCOCC3)c(F)c2)C(=O)O1 [linezolid] + O=[N+]([O-])c1cn2c(n1)OC[C@@H](OCc1ccc(OC(F)(F)F)cc1)C2 [pretomanid]
Conditions | AUC25, [1] | Einf, [5] | GRinf, [2] | total FIC50, [4] | total FIC90, [3]
in vitro model: acidic pH 5.7, time point: constant (~7 days, model-specific) | 0.134 | 0.896 | -0.388 | 0.236 | –
in vitro model: acidic pH 5.7, time point: terminal (~4-5 doublings, model-specific) | 0.0878 | 0.967 | -0.322 | 1.28 | 1.01
in vitro model: intracellular J774, time point: constant = terminal | – | 0.975 | -0.561 | – | 0.0435

Conditions | AUC25, [1] | Einf, [5] | GRinf, [2] | total FIC50, [4] | total FIC90, [3]
in vitro model: butyrate, time point: constant (~7 days, model-specific) | 0.0842 | 0.911 | 0.0181 | 0.478 | –
in vitro model: butyrate, time point: terminal (~4-5 doublings, model-specific) | 0.0626 | 0.944 | 0.0489 | 0.404 | 0.144
in vitro model: cholesterol 0.05 mM, time point: constant (~7 days, model-specific) | 0.12 | 0.731 | -0.14 | -0.149 | –
in vitro model: cholesterol 0.05 mM, time point: terminal (~4-5 doublings, model-specific) | 0.146 | 0.921 | -0.207 | -1.06 | –
in vitro model: cholesterol-high 0.2 mM, time point: constant (~7 days, model-specific) | 0.0978 | 0.905 | -0.175 | 0.567 | –
in vitro model: cholesterol-high 0.2 mM, time point: terminal (~4-5 doublings, model-specific) | 0.104 | 1 | -0.831 | 0.339 | 0.921
in vitro model: dormancy (butyrate + nitrate, low O2), time point: constant (~7 days, model-specific) | 0.142 | 0.891 | -0.209 | 1.03 | –
in vitro model: dormancy (butyrate + nitrate, low O2), time point: terminal (~4-5 doublings, model-specific) | 0.0963 | 0.981 | -0.881 | -0.0848 | -0.19
in vitro model: standard 7H9 glycerol, time point: constant = terminal | 0.0762 | 0.904 | 0.0621 | 0.648 | –
in vitro model: valerate, time point: constant (~7 days, model-specific) | 0.153 | 0.901 | -0.16 | -0.171 | –
in vitro model: valerate, time point: terminal (~4-5 doublings, model-specific) | 0.115 | 0.923 | -0.0362 | -0.419 | 2.13

CC[C@@H](CO)NCCN[C@@H](CC)CO [ethambutol] + CO[C@H]1/C=C/O[C@@]2(C)Oc3c(C)c(O)c4c(O)c(c(/C=N/N5CCN(C6CCCC6)CC5)c(O)c4c3C2=O)NC(=O)/C(C)=C\C=C\[C@H](C)[C@H](O)[C@@H](C)[C@@H](O)[C@@H](C)[C@H](OC(C)=O)[C@@H]1C [rifapentine] + CO[C@H]1/C=C/O[C@@]2(C)Oc3c(C)c(O)c4c(O)c(c(/C=N/N5CCN(C)CC5)c(O)c4c3C2=O)NC(=O)/C(C)=C\C=C\[C@H](C)[C@H](O)[C@@H](C)[C@@H](O)[C@@H](C)[C@H](OC(C)=O)[C@@H]1C [rifampicin]
Conditions | AUC25, [1] | Einf, [5] | GRinf, [2] | total FIC50, [4] | total FIC90, [3]
in vitro model: acidic pH 5.7, time point: constant (~7 days, model-specific) | 0.0788 | 0.863 | -0.0676 | -0.0556 | –
in vitro model: acidic pH 5.7, time point: terminal (~4-5 doublings, model-specific) | 0.0407 | 0.966 | -0.0521 | 0.0683 | -0.673
in vitro model: intracellular J774, time point: constant = terminal | – | 0.964 | -0.359 | – | -2.2

Conditions | AUC25, [1] | Einf, [5] | GRinf, [2] | total FIC50, [4] | total FIC90, [3]
in vitro model: butyrate, time point: constant (~7 days, model-specific) | 0.0871 | 0.924 | -0.00846 | 0.0694 | –
in vitro model: butyrate, time point: terminal (~4-5 doublings, model-specific) | 0.0718 | 0.965 | -0.0114 | 0.0725 | -0.469
in vitro model: cholesterol 0.05 mM, time point: constant (~7 days, model-specific) | 0.12 | 0.674 | -0.208 | -0.109 | –
in vitro model: cholesterol 0.05 mM, time point: terminal (~4-5 doublings, model-specific) | 0.0846 | 0.884 | -0.0993 | -0.106 | –
in vitro model: cholesterol-high 0.2 mM, time point: constant (~7 days, model-specific) | 0.0408 | 0.947 | -0.442 | 0.69 | –
in vitro model: cholesterol-high 0.2 mM, time point: terminal (~4-5 doublings, model-specific) | 0.0471 | 1 | -0.703 | 0.74 | 0.613
in vitro model: dormancy (butyrate + nitrate, low O2), time point: constant (~7 days, model-specific) | 0.066 | 0.854 | 0.363 | -0.0614 | –
in vitro model: dormancy (butyrate + nitrate, low O2), time point: terminal (~4-5 doublings, model-specific) | 0.0493 | 0.981 | -0.104 | 0.286 | -0.687
in vitro model: standard 7H9 glycerol, time point: constant = terminal | 0.0475 | 0.909 | 0.0838 | 0.231 | –
in vitro model: valerate, time point: constant (~7 days, model-specific) | 0.0622 | 0.889 | 0.0114 | -0.0551 | –
in vitro model: valerate, time point: terminal (~4-5 doublings, model-specific) | 0.0314 | 0.936 | 0.0132 | 0.133 | -0.823

CC[C@@H](CO)NCCN[C@@H](CC)CO [ethambutol] + COc1c(N2C[C@@H]3CCCN[C@@H]3C2)c(F)cc2c(=O)c(C(=O)O)cn(C3CC3)c12 [moxifloxacin] + CO[C@H]1/C=C/O[C@@]2(C)Oc3c(C)c(O)c4c(O)c(c(/C=N/N5CCN(C6CCCC6)CC5)c(O)c4c3C2=O)NC(=O)/C(C)=C\C=C\[C@H](C)[C@H](O)[C@@H](C)[C@@H](O)[C@@H](C)[C@H](OC(C)=O)[C@@H]1C [rifapentine]
Conditions | AUC25, [1] | Einf, [5] | GRinf, [2] | total FIC50, [4] | total FIC90, [3]
in vitro model: acidic pH 5.7, time point: constant (~7 days, model-specific) | 0.071 | 0.869 | 0.0546 | 0.231 | –
in vitro model: acidic pH 5.7, time point: terminal (~4-5 doublings, model-specific) | 0.0263 | 0.959 | -0.0323 | 0.724 | 0.104
in vitro model: intracellular J774, time point: constant = terminal | – | 0.975 | -0.351 | – | -1.53

Conditions | AUC25, [1] | Einf, [5] | GRinf, [2] | total FIC50, [4] | total FIC90, [3]
in vitro model: butyrate, time point: constant (~7 days, model-specific) | 0.0619 | 0.916 | 0.00267 | 0.508 | –
in vitro model: butyrate, time point: terminal (~4-5 doublings, model-specific) | 0.0506 | 0.961 | -0.00309 | 0.467 | -0.223
in vitro model: cholesterol 0.05 mM, time point: constant (~7 days, model-specific) | 0.104 | 0.635 | -0.31 | 0.788 | –
in vitro model: cholesterol 0.05 mM, time point: terminal (~4-5 doublings, model-specific) | 0.0642 | 0.834 | 0.155 | 1.57 | –
in vitro model: cholesterol-high 0.2 mM, time point: constant (~7 days, model-specific) | 0.0293 | 0.932 | -0.315 | 1.07 | –
in vitro model: cholesterol-high 0.2 mM, time point: terminal (~4-5 doublings, model-specific) | 0.0405 | 1 | -0.787 | 1.22 | 0.977
in vitro model: dormancy (butyrate + nitrate, low O2), time point: constant (~7 days, model-specific) | 0.0738 | 0.842 | 0.339 | 0.142 | –
in vitro model: dormancy (butyrate + nitrate, low O2), time point: terminal (~4-5 doublings, model-specific) | 0.116 | 0.993 | -0.177 | 0.309 | 0.994
in vitro model: standard 7H9 glycerol, time point: constant = terminal | 0.044 | 0.906 | 0.0179 | 0.47 | 0.148
in vitro model: valerate, time point: constant (~7 days, model-specific) | 0.0523 | 0.893 | -0.0774 | 0.833 | –
in vitro model: valerate, time point: terminal (~4-5 doublings, model-specific) | 0.0364 | 0.942 | -0.0136 | 0.843 | -0.33
